Laboratory results taken from paper PMC5654082 (Malaria Journal, 2017).
Structures can show the parent of a compound that is named as a salt.

Columns and labels:
[1] = cited from earlier work
human OCT2 = target: T1, human OCT2 (Homo sapiens, UniProt O15244); experiment: Inhibition of OCT2-mediated ASP uptake in transduced HEK293 cells; assay type: cell-based; conditions: 10 µM ASP, 10 min, 37 °C
T1 construct: host or cells: HEK293, baculovirus transduction (CMV promoter), transient
T1 sequence (O15244 1-555): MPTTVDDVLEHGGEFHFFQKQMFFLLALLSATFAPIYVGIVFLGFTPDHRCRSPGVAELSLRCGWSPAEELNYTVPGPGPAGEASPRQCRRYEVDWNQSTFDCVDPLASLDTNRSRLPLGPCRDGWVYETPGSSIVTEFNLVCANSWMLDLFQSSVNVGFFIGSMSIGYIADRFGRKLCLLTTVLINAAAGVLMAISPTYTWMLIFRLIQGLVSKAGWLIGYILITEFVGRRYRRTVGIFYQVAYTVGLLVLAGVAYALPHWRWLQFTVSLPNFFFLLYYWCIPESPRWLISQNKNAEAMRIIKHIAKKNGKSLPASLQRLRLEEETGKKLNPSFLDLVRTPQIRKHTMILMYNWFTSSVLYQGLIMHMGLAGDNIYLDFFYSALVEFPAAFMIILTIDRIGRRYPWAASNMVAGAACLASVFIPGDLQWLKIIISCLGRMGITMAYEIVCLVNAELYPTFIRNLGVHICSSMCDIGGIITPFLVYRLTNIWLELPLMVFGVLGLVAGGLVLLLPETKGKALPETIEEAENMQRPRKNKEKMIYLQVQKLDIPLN
Experimental: HEK293 cells were modified to transiently express (a combination of) human OCT1, OCT2, MATE1, MATE2-K, or eYFP. Briefly, cDNA of the respective genes was cloned downstream of a CMV promoter into a baculovirus, of which passage three was used to transduce HEK293 cells. These cells were seeded in poly-D-lysine coated 24- or 96-wells plates and grown in a 37 °C incubator at 5% CO2. […] After 24 h, cells were transduced with 30 µL virus (10 µL virus + 20 µL complete medium in case of 96-wells plates) or 2 × 15 µL virus for cells that required simultaneous expression of two transporters. Finally, 195 µL sodium butyrate (45 µL for 96-wells plates) was added to a final concentration of 2 mM to enhance protein expression.
AMO (10 mM), ASP (1 mM), CQ (10 mM), PQ (10 mM) and PG (10 mM) were dissolved in MilliQ water. ART (10 mM), ATO (10 mM), DHA (10 mM), LUM (10 mM), MQ (10 mM), NMQ (20 mM), PYR (10 mM), QN (10 mM) were dissolved in DMSO. All compound stocks were stored at − 20 °C. Inhibition of OCT1- or OCT2-mediated ASP uptake by anti-malarials was performed in poly-D-lysine coated 96-wells plates 2 or 3 days following HEK293 cell transduction. In short, cells were washed with 125 µL 37 °C HBSS containing 10 mM HEPES, pH 7.4. […] ASP transport was stopped by washing with 125 µL ice-cold HBSS-HEPES buffer supplemented with 0.5% BSA.
For each compound, a range of seven concentrations was used to determine the concentration at which ASP uptake was inhibited half maximally (IC50). At least three independent experiments (4 for QN) were performed for each drug in triplicate as described above. […] To generate the final dose–response inhibition curve per anti-malarial, percentage of uptake was averaged for each drug concentration per experiment and the resulting mean ± SEM corresponding to three or four independent experiments were plotted.

## [H]/N=C(\N/C(=N/[H])Nc1ccc(Cl)cc1)NC(C)C [Proguanil, proguanil hydrochloride]
[1]
  Unbound fraction: 0.25 [39]
Human OCT2; seven concentrations
  IC50: 13 µM
Human OCT2; 50 µM anti-malarial, relative to solvent control fixed at 100%
  Relative ASP uptake (OCT2-mediated): 19 ± 7%
